Measured values taken from the supplement of paper PMC10307832.

Legend:
Assay in all cases: relative viability (nuclei count vs DMSO), 5 days (fraction); higher = more cells survive
Afatinib + Pictilisib = compound: CN(C)C/C=C/C(=O)Nc1cc2c(Nc3ccc(F)c(Cl)c3)ncnc2cc1O[C@H]1CCOC1 [Afatinib] + CS(=O)(=O)N1CCN(Cc2cc3nc(-c4cccc5[nH]ncc45)nc(N4CCOCC4)c3s2)CC1 [Pictilisib] (partner 1 µM)
In short: (§1)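 Lung cancer cell lines in 1536-well plates got either a single drug or a fixed anchor-drug dose together with five library-drug doses (not always all listed) in √10 steps, by pin tool, on the day after seeding. Nuclei were counted after 5 days, and relative viability is the treated-to-vehicle ratio of nuclei counts. Values are medians of duplicate plates.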

Afatinib + Phenformin = compound: CN(C)C/C=C/C(=O)Nc1cc2c(Nc3ccc(F)c(Cl)c3)ncnc2cc1O[C@H]1CCOC1 [Afatinib] + N=C(N)NC(=N)NCCc1ccccc1 [Phenformin] (partner 250 µM)
In short: as §1

Afatinib + Palbociclib = compound: CN(C)C/C=C/C(=O)Nc1cc2c(Nc3ccc(F)c(Cl)c3)ncnc2cc1O[C@H]1CCOC1 [Afatinib] + CC(=O)c1c(C)c2cnc(Nc3ccc(N4CCNCC4)cn3)nc2n(C2CCCC2)c1=O [Palbociclib] (partner 0.5 µM)
In short: as §1

Afatinib + Decitabine = compound: CN(C)C/C=C/C(=O)Nc1cc2c(Nc3ccc(F)c(Cl)c3)ncnc2cc1O[C@H]1CCOC1 [Afatinib] + Nc1ncn([C@H]2C[C@H](O)[C@@H](CO)O2)c(=O)n1 [Decitabine] (partner 2 µM)
In short: as §1

Row | Cell Line | relative viability (Afatinib + Pictilisib; first compound 0.005 µM) | relative viability (Afatinib + Pictilisib; first compound 0.01581 µM) | relative viability (Afatinib + Pictilisib; first compound 0.05 µM) | relative viability (Afatinib + Pictilisib; first compound 0.1581 µM) | relative viability (Afatinib + Pictilisib; first compound 0.5 µM) | relative viability (Afatinib + Phenformin; first compound 0.005 µM) | relative viability (Afatinib + Phenformin; first compound 0.01581 µM) | relative viability (Afatinib + Phenformin; first compound 0.05 µM) | relative viability (Afatinib + Phenformin; first compound 0.1581 µM) | relative viability (Afatinib + Phenformin; first compound 0.5 µM) | relative viability (Afatinib + Palbociclib; first compound 0.005 µM) | relative viability (Afatinib + Palbociclib; first compound 0.01581 µM) | relative viability (Afatinib + Palbociclib; first compound 0.05 µM) | relative viability (Afatinib + Palbociclib; first compound 0.1581 µM) | relative viability (Afatinib + Palbociclib; first compound 0.5 µM) | relative viability (Afatinib + Decitabine; first compound 0.005 µM) | relative viability (Afatinib + Decitabine; first compound 0.01581 µM) | relative viability (Afatinib + Decitabine; first compound 0.05 µM) | relative viability (Afatinib + Decitabine; first compound 0.1581 µM) | relative viability (Afatinib + Decitabine; first compound 0.5 µM)
1 | LOU-NH91 | 0.492 | 0.49 | 0.541 | 0.498 | 0.501 | 0.342 | 0.45 | 0.477 | 0.394 | 0.548 | 0.533 | 0.535 | 0.538 | 0.564 | 0.538 | 0.617 | 0.672 | 0.699 | 0.643 | 0.697
2 | LU99A | 0.345 | 0.395 | 0.308 | 0.349 | 0.295 | 0.837 | 0.851 | 0.891 | 0.944 | 0.828 | 0.451 | 0.39 | 0.425 | 0.36 | 0.391 | 0.903 | 0.93 | 0.929 | 0.873 | 0.964
3 | NCI-H1395 | 0.658 | 0.515 | 0.723 | 0.624 | 0.551 | 0.476 | 0.41 | 0.447 | 0.442 | 0.449 | 0.592 | 0.572 | 0.625 | 0.591 | 0.606 | 0.773 | 0.741 | 0.744 | 0.657 | 0.672
4 | NCI-H460 | 0.371 | 0.39 | 0.339 | 0.35 | 0.343 | 0.549 | 0.517 | 0.536 | 0.558 | 0.498 | 0.165 | 0.175 | 0.237 | 0.184 | 0.242 | 0.446 | 0.464 | 0.521 | 0.526 | 0.551
5 | 201T | 0.682 | 0.658 | 0.662 | 0.659 | 0.698 | 0.475 | 0.444 | 0.43 | 0.398 | 0.387 | 0.336 | 0.346 | 0.354 | 0.358 | 0.339 | 0.857 | 0.867 | 0.844 | 0.78 | 0.822
6 | NCI-H1944 | 0.387 | 0.307 | 0.335 | 0.319 | 0.335 | 0.19 | 0.195 | 0.188 | 0.174 | 0.166 | 0.287 | 0.33 | 0.272 | 0.206 | 0.237 | 0.423 | 0.403 | 0.419 | 0.343 | 0.344
7 | NCI-H2405 | 0.445 | 0.47 | 0.611 | 0.473 | 0.57 | 0.339 | 0.413 | 0.435 | 0.363 | 0.392 | 0.555 | 0.562 | 0.57 | 0.513 | 0.508 | 0.716 | 0.764 | 0.703 | 0.642 | 0.656
8 | NCI-H1703 | 0.239 | 0.246 | 0.263 | 0.23 | 0.205 |  |  |  |  |  |  |  |  |  |  |  |  |  |  | 
9 | NCI-H1755 | 0.433 | 0.435 | 0.41 | 0.368 | 0.358 | 0.677 | 0.663 | 0.823 | 0.578 | 0.617 | 0.463 | 0.438 | 0.441 | 0.456 | 0.433 | 0.725 | 0.693 | 0.728 | 0.695 | 0.661
